Test results published in patent publication US6509328B1, “Glutamate receptor antagonists” (Hoffmann-La Roche Inc., priority 1999, dated 2003).
pKi: −log10 of the molar value.

What was measured:
[1] = molecular target: T1, rat mGlu2 receptor (Rattus norvegicus, UniProt P31421); assay: [3H]-LY354740 binding on mGlu2 transfected CHO cell membranes
T1 construct: expressed in transfected cells; vector pcDNA I-amp (pcD1mGR2)
From the text: [^3H]-LY354740 Binding on mGlu2 Transfected CHO Cell Membranes
Transfection and Cell Culture
cDNA encoding the rat mGlu2 receptor protein in pBluescript II was obtained from Prof. S. Nakanishi (Kyoto, Japan), and subcloned into the eukaryotic expression vector pcDNA I-amp from Invitrogen (N V Leek, The Netherlands). This vector construct (pcD1mGR2) was co-transfected with a psvNeo plasmid encoding the gene for neomycin resistance, into CHO cells by a modified calcium phosphate method described by Chen & Okayama (1988). The cells were maintained in Dulbecco's Modified Eagle medium with reduced L-glutamine (2 mM final concentration) and 10% dialysed foetal calf serum from Gibco BRL (Basel, Switzerland). Selection was made in the presence of […] (1000 ug/ml final). Clones were identified by reverse transcription of 5 μg total RNA, followed by PCR using mGlu2 receptor specific primers 5′-[…]-3′ and 5′-[…]-3′ in 60 mM Tris HCl (pH 10), 15 mM (NH4)2SO4, 2 mM MgCl2, 25 units/ml Taq Polymerase with 30 cycles annealing at 60° C. for 1 min., extension at 72° C. for 30s, and 1 min. 95° C. denaturation.
Cells, cultured as above, were harvested and washed three times with cold PBS and frozen at −80° C. The pellet was resuspended in cold 20 mM HEPES-NaOH buffer containing 10 mM EDTA (pH 7.4), and homogenised with a polytron (Kinematica, AG, Littau, Switzerland) for 10s at 10,000 rpm. After centrifugation for 30 min. at 4° C., the pellet was washed once with the same buffer, and once with cold 20 mM HEPES-NaOH buffer containing 0.1 mM EDTA, (pH 7.4). Protein content was measured using the Pierce method (Socochim, Lausanne, Switzerland) using bovine serum albumin as standard.
After thawing, the membranes were resuspended in cold 50 mM Tris-HCl buffer containing 2 mM MgCl2 and 2 mM CaCl2, (pH 7) (binding buffer). The final concentration of the membranes in the assays was 25 μg protein/ml. Inhibition experiments were performed with membranes incubated with 10 nM [^3H]-LY354740 at room temperature, for 1 hour, in presence of various concentrations of the compound to be tested. Following the incubations, membranes were filtered onto Whatmann GF/C glass fiber filters and washed 5 times with cold binding buffer. Non specific binding was measured in the presence of 10 μM DCG IV (TOCRIS No. 0975). After transfer of the filters into plastic vials containing 10 ml of Ultima-gold scintillation fluid (Packard, Zürich, Switzerland), the radioactivity was measured by liquid scintillation in a Tri-Carb 2500 TR counter (Packard, Zürich, Switzerland).
The inhibition curves were fitted with a four parameter logistic equation giving IC50 values, and Hill coefficients.

T1 sequence (P31421 19-872): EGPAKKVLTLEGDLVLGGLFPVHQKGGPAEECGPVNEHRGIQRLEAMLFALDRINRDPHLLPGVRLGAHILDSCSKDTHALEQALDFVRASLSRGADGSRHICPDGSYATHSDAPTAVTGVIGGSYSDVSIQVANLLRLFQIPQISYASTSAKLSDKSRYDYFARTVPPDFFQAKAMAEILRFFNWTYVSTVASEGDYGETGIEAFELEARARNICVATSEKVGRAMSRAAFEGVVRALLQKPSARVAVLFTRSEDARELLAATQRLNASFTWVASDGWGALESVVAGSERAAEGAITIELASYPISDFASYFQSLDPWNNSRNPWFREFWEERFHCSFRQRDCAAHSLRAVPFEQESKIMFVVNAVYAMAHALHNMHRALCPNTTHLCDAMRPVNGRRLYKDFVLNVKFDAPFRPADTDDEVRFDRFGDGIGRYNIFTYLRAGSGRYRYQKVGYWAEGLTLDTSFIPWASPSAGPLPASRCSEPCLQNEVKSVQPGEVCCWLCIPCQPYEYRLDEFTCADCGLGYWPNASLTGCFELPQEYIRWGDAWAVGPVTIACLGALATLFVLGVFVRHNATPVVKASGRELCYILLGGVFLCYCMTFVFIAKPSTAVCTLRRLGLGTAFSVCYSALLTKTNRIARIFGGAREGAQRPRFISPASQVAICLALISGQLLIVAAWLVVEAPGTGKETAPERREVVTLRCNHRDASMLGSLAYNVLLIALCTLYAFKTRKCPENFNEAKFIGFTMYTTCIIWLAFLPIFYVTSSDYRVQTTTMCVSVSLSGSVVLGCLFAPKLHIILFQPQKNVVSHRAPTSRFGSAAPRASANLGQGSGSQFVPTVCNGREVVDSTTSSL

Row | Structure (SMILES) | pKi [1] | melting point
1 | N#Cc1ccsc1C1=CC(=O)Nc2cc(-c3ccc(F)cc3)ccc2N1 [Example 83, 2-[7-(4-Fluoro-phenyl)-4-oxo-4,5-dihydro-1H-benzo [b][1,4]diazepin-2-yl]-thiophene-3-carbonitrile] | 6.60 | 239 to 240 °C
2 | N#Cc1cc(C2=Nc3ccc(-c4ccc(F)cc4F)cc3NC(=O)C2)ccn1 [Example 104, 4-[7-(2,4-Difluoro-phenyl)-4-oxo-4,5-dihydro-3H-benzo [b][1,4]diazepin-2-yl]-pyridine-2-carbonitrile] | 7.59 | 250 to 253 °C
3 | Cc1cc(-c2cccc(C3=Nc4ccc(-c5ccc(F)cc5)cc4NC(=O)C3)c2)on1 [Example 117, 8-(4-Fluoro-phenyl)-4-[3-(3-methyl-isoxazol-5-yl)-phenyl]-1,3-dihydro-benzo[b][1,4]diazepin-2-one] | 6.54 | > 250 °C
4 | O=C1CC(c2csc(-n3ccnc3)n2)=Nc2ccc(-c3ccccc3F)cc2N1 [Example 124, 8-(2-Fluoro-phenyl)-4-(2-imidazol-1-yl-thiazol-4-yl)-1,3-dihydro-benzo [b][1,4]diazepin-2-one] | 6.53 | 194 to 197 °C
5 | Cc1nnc(-c2cccc(C3=Nc4ccc(-c5ccc(F)cc5)cc4NC(=O)C3)c2)n1C [Example 166, 4-[3-(4,5-Dimethyl-4H-[1,2,4]triazol-3-yl)-phenyl]-8-(4-fluoro-phenyl)-1,3-dihydro-benzo[b][1,4]diazepin-2-one] | 6.97 | 238 to 240 °C (dec.)

Further lines, results first:

Row | pKi [1] | melting point | Structure (SMILES)
6 | 7.80 | 215 °C | Cc1cn(-c2cccc(C3=Nc4ccc(-c5ccc(F)cc5)cc4NC(=O)C3)c2)cn1 [Example 76, 8-(4-Fluoro-phenyl)-4-[3-(4-methyl-imidazol-1-yl)-phenyl]-1,3-dihydro-benzo [b][1,4]diazepin-2-one]
7 | 7.30 | 170 to 172 °C | Cc1cc(F)ccc1-c1ccc2c(c1)NC(=O)CC(c1cccc(-n3ccnc3)c1)=N2 [Example 79, 8-(4-Fluoro-2-methyl-phenyl)-4-(3-imidazol-1-yl-phenyl)-1,3-dihydro-benzo[b][1,4]diazepin-2-one]
8 | 6.77 | 220 °C | O=C1CC(c2cccc(-n3ccnc3)c2)=Nc2ccc(-c3ccc(F)cc3O)cc2N1 [Example 80, 8-(4-Fluoro-2-hydroxy-phenyl)-4-(3-imidazol-1-yl-phenyl)-1,3-dihydro-benzo[b][1,4]diazepin-2-one]
